Laboratory results: ChEMBL document CHEMBL3244168, “Synthesis and antitumor activity of preactivated isophosphamide analogues bearing modified alkylating functionalities” (J Med Chem, 1978)
In brackets after ≈: the same amount, converted by molar mass.

Legend:
[1] = test system: L1210; experiment: Antileukemic activity against mouse L1210 cells allografted in ip dosed BDF1 mouse administered 24 hrs; type: functional
[2] = test system: L1210; experiment: Antileukemic activity against mouse L1210 cells allografted in ip dosed BDF1 mouse assessed as maximum tolerated dose for survival over 30 days administered 24 hrs; type: functional
[3] = test system: L1210; experiment: Ratio of ILSmax to ILS30 for antileukemic activity against mouse L1210 cells allografted in ip dosed BDF1 mouse; type: functional
[4] = test system: L1210; experiment: Cytotoxicity against mouse L1210 cells assessed as growth inhibition after 72 hrs; type: functional; settings: L1210, 72 h, read-out: ED50 (the source's name)
[5] = test system: L1210; experiment: Ratio of Cmax to Cmin for antileukemic activity against mouse L1210 cells allografted in iv dosed BDF1 mouse assessed as survival over 60 days; type: functional
[6] = test system: Rattus norvegicus; experiment: Acute toxicity in po dosed Wistar rat; type: organism-based; settings: in vivo
[7] = test system: L1210; experiment: Antileukemic activity against mouse L1210 cells allografted in BDF1 mouse assessed as mean survival time at 100 mg/kg, ip administered 24 hrs (Rvb 4.6 +/- 0.16 days); type: functional; settings: route intraperitoneal
[8] = test system: L1210; experiment: Antileukemic activity against mouse L1210 cells allografted in BDF1 mouse assessed as increase in life span at 50 mg/kg, ip administered 24 hrs relative to control; type: functional; settings: route intraperitoneal
[9] = test system: L1210; experiment: Antileukemic activity against mouse L1210 cells allografted in iv dosed BDF1 mouse assessed as maximum tolerated dose for survival over 60 days administered 24 hrs; type: functional
[10] = test system: L1210; experiment: Antileukemic activity against mouse L1210 cells allografted in BDF1 mouse assessed as mean survival time at 20 mg/kg, ip administered 24 hrs (Rvb 4.6 +/- 0.16 days); type: functional; settings: route intraperitoneal
[11] = test system: L1210; experiment: Antileukemic activity against mouse L1210 cells allografted in BDF1 mouse assessed as increase in life span at 20 mg/kg, ip administered 24 hrs relative to control; type: functional; settings: route intraperitoneal
[12] = test system: L1210; experiment: Antileukemic activity against mouse L1210 cells allografted in iv dosed BDF1 mouse assessed as survival over 60 days administered 24 hrs; type: functional; settings: read-out: MED
[13] = test system: Mus musculus; experiment: Acute toxicity in iv dosed BDF1 mouse; type: organism-based; settings: in vivo
[14] = test system: Mus musculus; experiment: Acute toxicity in ip dosed BDF1 mouse; type: organism-based; settings: in vivo
[15] = test system: L1210; experiment: Antileukemic activity against mouse L1210 cells allografted in BDF1 mouse assessed as increase in life span at 100 mg/kg, ip administered 24 hrs relative to control; type: functional; settings: route intraperitoneal
[16] = test system: L1210; experiment: Antileukemic activity against mouse L1210 cells allografted in BDF1 mouse assessed as mean survival time at 50 mg/kg, ip administered 24 hrs (Rvb 4.6 +/- 0.16 days); type: functional; settings: route intraperitoneal
[17] = test system: L1210; experiment: Antileukemic activity against mouse L1210 cells allografted in po dosed BDF1 mouse assessed as maximum tolerated dose for survival over 60 days administered 24 hrs; type: functional
[18] = test system: L1210; experiment: Antileukemic activity against mouse L1210 cells allografted in po dosed BDF1 mouse assessed as survival over 60 days administered 24 hrs; type: functional; settings: read-out: MED
[19] = test system: L1210; experiment: Ratio of Cmax to Cmin for antileukemic activity against mouse L1210 cells allografted in po dosed BDF1 mouse assessed as survival over 60 days; type: functional
[20] = test system: L1210; experiment: Antileukemic activity against mouse L1210 cells allografted in ip dosed BDF1 mouse assessed as maximum tolerated dose for survival over 60 days administered 24 hrs; type: functional
[21] = test system: L1210; experiment: Ratio of Cmax to Cmin for antileukemic activity against mouse L1210 cells allografted in ip dosed BDF1 mouse assessed as survival over 60 days; type: functional
[22] = test system: L1210; experiment: Antileukemic activity against mouse L1210 cells allografted in ip dosed BDF1 mouse assessed as survival over 60 days administered 24 hrs; type: functional; settings: read-out: MED
[23] = test system: L1210; experiment: Antileukemic activity against mouse L1210 cells allografted in BDF1 mouse assessed as increase in life span at 200 mg/kg, ip administered 24 hrs relative to control; type: functional; settings: route intraperitoneal
[24] = test system: L1210; experiment: Antileukemic activity against mouse L1210 cells allografted in BDF1 mouse assessed as mean survival time at 200 mg/kg, ip administered 24 hrs (Rvb 4.6 +/- 0.16 days); type: functional; settings: route intraperitoneal
[25] = test system: Rattus norvegicus; experiment: Acute toxicity in ip dosed Wistar rat; type: organism-based; settings: in vivo
[26] = test system: Rattus norvegicus; experiment: Acute toxicity in iv dosed Wistar rat; type: organism-based; settings: in vivo
[27] = test system: Mus musculus; experiment: Acute toxicity in po dosed BDF1 mouse; type: organism-based; settings: in vivo

CCS(=O)(=O)OCCN(C)P1(=O)OCCC(OO)N1CCCl (stereo not given)
ILS30 [1]: 10 mg/kg
ILSmax [2]: 80 mg/kg
Ratio [3]: 8
EC50 [4]: 0.8 µg/mL (≈ 2.1 µM)

CCN(CCCl)P1(=O)OCCC(OO)N1CCOS(C)(=O)=O (stereo not given)
ILS30 [1]: 6 mg/kg
ILSmax [2]: 70 mg/kg
Ratio [3]: 12
EC50 [4]: 0.5 µg/mL (≈ 1.31 µM)

O=P1(NCCCl)OCCC(OO)N1CCCl (stereo not given)
Ratio [5]: 1.8
LD10 [6]: 800 mg/kg
MST [7]: >23.8 days
ILS30 [1]: 15 mg/kg
ILS at 50 mg/kg [8]: 172%
MTD [9]: 160 mg/kg
MST [10]: 8.9 days
ILS at 20 mg/kg [11]: 93%
ILSmax [2]: 100 mg/kg
minimal effective dose [12]: 90 mg/kg
Ratio [3]: 7
LD10 [13]: 220 mg/kg
EC50 [4]: 1.8 µg/mL (≈ 6.14 µM)
LD10 [14]: 220 mg/kg
ILS at 100 mg/kg [15]: > 416%
MST [16]: 12.5 days
MTD [17]: 400 mg/kg
minimal effective dose [18]: 400 mg/kg
Ratio [19]: 1
MTD [20]: 70 mg/kg
Ratio [21]: 2.3
minimal effective dose [22]: 30 mg/kg
ILS at 200 mg/kg [23]: > 476%
MST [24]: >26.5 days
LD10 [25]: 250 mg/kg
LD10 [26]: 250 mg/kg
LD10 [27]: 1000 mg/kg

CS(=O)(=O)OCCNP1(=O)OCCC(OO)N1CCOS(C)(=O)=O (stereo not given)
ILS30 [1]: 25 mg/kg
ILSmax [2]: 50 mg/kg
Ratio [3]: 2
EC50 [4]: 3.9 µg/mL (≈ 9.46 µM)

CN(CCBr)P1(=O)OCCC(OO)N1CCCl (stereo not given)
ILS30 [1]: 6 mg/kg
ILSmax [2]: 70 mg/kg
Ratio [3]: 12
EC50 [4]: 0.3 µg/mL (≈ 0.853 µM)

CN(CCBr)P1(=O)OCCC(OO)N1CCOS(C)(=O)=O (stereo not given)
ILS30 [1]: 3 mg/kg
ILSmax [2]: 60 mg/kg
Ratio [3]: 20
EC50 [4]: 1 µg/mL (≈ 2.43 µM)

CS(=O)(=O)OCCN1C(OO)CCOP1(=O)NCCCl (stereo not given)
ILS30 [1]: 2 mg/kg
ILSmax [2]: 75 mg/kg
Ratio [3]: 38
EC50 [4]: 0.8 µg/mL (≈ 2.27 µM)

CCS(=O)(=O)OCCN1C(OO)CCOP1(=O)N(C)CCCl (stereo not given)
ILS30 [1]: 5 mg/kg
ILSmax [2]: 70 mg/kg
Ratio [3]: 14
EC50 [4]: 1 µg/mL (≈ 2.63 µM)
